Target: T1, cytochrome c′ (AXCP) (Achromobacter xylosoxidans, UniProt P00138, L16G)
T1 sequence (P00138 1-127 L16G): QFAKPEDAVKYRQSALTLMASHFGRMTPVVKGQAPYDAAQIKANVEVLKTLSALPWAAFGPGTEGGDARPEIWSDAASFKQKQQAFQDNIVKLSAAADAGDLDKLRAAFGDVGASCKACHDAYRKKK
Test: UV-vis titration
Assay type: binding

O=NO [nitrite]
Kd: 500 ± 150 µM
